From PMC6720605, “Bioactivity of Methoxylated and Methylated 1-Hydroxynaphthalene-2-Carboxanilides: Comparative Molecular Surface Analysis” (Molecules, 2019)
In brackets after ≈: the same amount, converted by molar mass. Like-named read-outs stand apart in the source and are kept apart here.

How the values were obtained:
[1] = tested on: methicillin-resistant S. aureus SA 630; experiment: In vitro antibacterial evaluation (MIC), MRSA clinical isolate SA 630; format: cell-based, Staphylococcus aureus; settings: read-out: MIC MRSA SA 630
Experimental: (§1) The synthesized compounds were evaluated for in vitro antibacterial activity against representatives of multidrug-resistant bacteria, clinical isolates of methicillin-resistant Staphylococcus aureus (MRSA) 63718, SA 630 and SA 3202 [16, 17] that were obtained from the National Institute of Public Health (Prague, Czech Republic). S. aureus ATCC 29213 was used as the reference and quality control strain. Ampicillin (Sigma, St. Louis, MO, USA) was used as the standard. The screening was performed as described previously.

[2] = tested on: methicillin-resistant S. aureus SA 3202; experiment: In vitro antibacterial evaluation (MIC), MRSA clinical isolate SA 3202; format: cell-based, Staphylococcus aureus; settings: read-out: MIC MRSA SA 3202
Experimental: as §1

[3] = tested on: methicillin-resistant S. aureus 63718; experiment: In vitro antibacterial evaluation (MIC), MRSA clinical isolate 63718; format: cell-based, Staphylococcus aureus
Experimental: as §1

[4] = tested on: Staphylococcus aureus ATCC 29213; experiment: In vitro antistaphylococcal susceptibility testing (MIC), reference strain; format: cell-based
Experimental: as §1

[5] = tested on: photosynthetic electron transport (PET) in spinach (Spinacia oleracea L.) chloroplasts; experiment: Inhibition of photosynthetic electron transport (PET) in spinach chloroplasts; format: biochemical
Experimental: The PET-inhibiting investigation using chloroplasts from spinach (Spinacia oleracea L.) was performed as described previously.

[6] = tested on: Mycobacterium tuberculosis H37Ra ATCC 25177; experiment: In vitro antimycobacterial evaluation (MIC), M. tuberculosis; format: cell-based
Experimental: (§2) The evaluation of the in vitro antimycobacterial activity of the compounds was performed against Mycobacterium tuberculosis H37Ra ATCC 25177 and M. kansasii DSM 44162 by means of the methodology described recently [e.g., 1,3,4–6,15,43]. Isoniazid (Sigma) was used as the standard.

[7] = Lipophilicity determination by HPLC (capacity factor k / calculated log k); format: physicochemical; settings: experimental lipophilicity
Experimental: The lipophilicity determination was performed as described by Kapustikova et al..

[8] = tested on: M. kansasii DSM 44162; experiment: In vitro antimycobacterial evaluation (MIC), M. kansasii; format: cell-based, Mycobacterium kansasii
Experimental: as §2

[9] = tested on: human monocytic leukaemia THP-1 cells; format: cell-based; settings: 30 µM highest concentration
Experimental: Human monocytic leukaemia THP-1 cells were obtained from the European Collection of Cell Cultures (ECACC, Salisbury, UK; Methods of characterization: DNA Fingerprinting (Multilocus probes) and isoenzyme analysis). Cell toxicity was determined using a Cytotoxicity Detection Kit^PLUS Lactate dehydrogenase (LDH) assay kit (Roche Diagnostics, Mannheim, Germany) according to the manufacturer’s instructions, as described previously.

[10] = clinical isolate MRSA 63718, read-out: MIC MRSA 63718
[11] = M. kansasii DSM 44162, read-out: MIC MK

With `CC1(C)S[C@@H]2[C@H](NC(=O)[C@H](N)c3ccccc3)C(=O)N2[C@H]1C(=O)O` [AMP, ampicillin, reference compound] the MIC ([1]; Staphylococcus aureus, clinical isolate MRSA SA 630) was 45.8 µM (≈ 16 µg/mL), the MIC ([2]; Staphylococcus aureus, clinical isolate MRSA SA 3202) was 45.8 µM (≈ 16 µg/mL) and the MIC ([3]; Staphylococcus aureus, clinical isolate MRSA 63718, read-out: MIC MRSA 63718) was 45.8 µM (≈ 16 µg/mL). It also gave an MIC ([4]; ATCC29213) of 5.72 µM (≈ 2 µg/mL).

`COc1ccccc1NC(=O)c1ccc2ccccc2c1O` [Compound 2] gave an MIC ([1]; clinical isolate MRSA SA 630) of over 873 µM, an IC50 [5] of 199 µM and an MIC [6] of 436 µM (≈ 128 µg/mL). The log k [7] was 0.8584, the MIC ([2]; clinical isolate MRSA SA 3202) was over 873 µM and the MIC [3, 10] was over 873 µM. It also gave an MIC [8, 11] of over 873 µM and an MIC [4] of over 873 µM.

Work on `COc1cccc(NC(=O)c2ccc3ccccc3c2O)c1` [Compound 3] yielded an MIC ([1]; clinical isolate MRSA SA 630) of over 873 µM, an IC50 [5] of 23.5 µM and an MIC [6] of 436 µM (≈ 128 µg/mL). For the same compound, the log k [7] was 0.6713, the MIC ([2]; clinical isolate MRSA SA 3202) was over 873 µM and the MIC [3, 10] was over 873 µM. It also gave an MIC [8, 11] of over 873 µM and an MIC [4] of 109 µM (≈ 32 µg/mL).

`COc1ccc(NC(=O)c2ccc3ccccc3c2O)cc1` [Compound 4] showed an MIC ([1]; clinical isolate MRSA SA 630) of over 873 µM, an IC50 [5] of 79.5 µM and an MIC [6] of 436 µM (≈ 128 µg/mL). It also gave a log k [7] of 0.6284, an MIC ([2]; clinical isolate MRSA SA 3202) of over 873 µM and an MIC [3, 10] of over 873 µM. It also gave an MIC [8, 11] of over 873 µM and an MIC [4] of 873 µM (≈ 256 µg/mL).

`COc1ccc(OC)c(NC(=O)c2ccc3ccccc3c2O)c1` [Compound 5] showed an MIC ([1]; clinical isolate MRSA SA 630) of 395 µM (≈ 128 µg/mL), an IC50 [5] of 201 µM and an MIC [6] of 396 µM (≈ 128 µg/mL). It also gave a log k [7] of 0.8712, an MIC ([2]; clinical isolate MRSA SA 3202) of 197 µM (≈ 63.7 µg/mL) and an MIC [3, 10] of 395 µM (≈ 128 µg/mL). The MIC [8, 11] was 24.7 µM (≈ 7.99 µg/mL) and the MIC [4] was 791 µM (≈ 256 µg/mL).

Compound `COc1cc(NC(=O)c2ccc3ccccc3c2O)cc(OC)c1` [Compound 6, N-(3,5-dimethoxy-phenyl)-1-hydroxynaphthalene-2-carboxamide] has an MIC ([1]; Staphylococcus aureus, MRSA) of 24.7 µM (≈ 7.99 µg/mL), an IC50 [5] of 13.4 µM and an MIC [6] of 24.7 µM (≈ 7.99 µg/mL). For the same compound, the log k [7] was 0.7048, the MIC ([2]; Staphylococcus aureus, MRSA) was 24.7 µM (≈ 7.99 µg/mL) and the MIC ([3]; Staphylococcus aureus, MRSA, read-out: MIC MRSA 63718) was 24.7 µM (≈ 7.99 µg/mL). The MIC ([3]; Staphylococcus aureus, MRSA, read-out: MIC against the MRSA strains) was 24.7 µM (≈ 7.99 µg/mL), the “Tox LD50” value [9] was over 30 µM and the MIC ([8]; Mycobacterium kansasii, DSM44162, read-out: MIC MK) was 24.7 µM (≈ 7.99 µg/mL). It also gave an MIC [4] of 12.3 µM (≈ 3.98 µg/mL) and an MIC ([4]; ATCC29213) of 12.3 µM (≈ 3.98 µg/mL).

Compound `COc1cc(NC(=O)c2ccc3ccccc3c2O)cc(OC)c1OC` [Compound 7] has an MIC ([1]; clinical isolate MRSA SA 630) of 724 µM (≈ 256 µg/mL), an IC50 [5] of 468 µM and an MIC [6] of 22.6 µM (≈ 7.99 µg/mL). For the same compound, the log k [7] was 0.5603, the MIC ([2]; clinical isolate MRSA SA 3202) was 724 µM (≈ 256 µg/mL) and the MIC [3, 10] was 724 µM (≈ 256 µg/mL). It also gave an MIC [8, 11] of 90.5 µM (≈ 32 µg/mL) and an MIC [4] of 724 µM (≈ 256 µg/mL).

For `Cc1ccccc1NC(=O)c1ccc2ccccc2c1O` [Compound 8], the MIC ([1]; clinical isolate MRSA SA 630) was 231 µM (≈ 64.1 µg/mL), the IC50 [5] was 62.8 µM and the MIC [6] was 462 µM (≈ 128 µg/mL). The log k [7] was 0.5650, the MIC ([2]; clinical isolate MRSA SA 3202) was 231 µM (≈ 64.1 µg/mL) and the MIC [3, 10] was 231 µM (≈ 64.1 µg/mL). For the same compound, the MIC [8, 11] was 115 µM (≈ 31.9 µg/mL) and the MIC [4] was 115 µM (≈ 31.9 µg/mL).

For `Cc1cccc(NC(=O)c2ccc3ccccc3c2O)c1` [Compound 9], the MIC ([1]; clinical isolate MRSA SA 630) was 923 µM (≈ 256 µg/mL), the IC50 [5] was 20 µM and the MIC [6] was 462 µM (≈ 128 µg/mL). The log k [7] was 0.8235, the MIC ([2]; clinical isolate MRSA SA 3202) was 462 µM (≈ 128 µg/mL) and the MIC [3, 10] was 923 µM (≈ 256 µg/mL). It also gave an MIC [8, 11] of 28.8 µM (≈ 7.99 µg/mL) and an MIC [4] of 115 µM (≈ 31.9 µg/mL).

Work on `Cc1ccc(NC(=O)c2ccc3ccccc3c2O)cc1` [Compound 10] yielded an MIC ([1]; clinical isolate MRSA SA 630) of 923 µM (≈ 256 µg/mL), an IC50 [5] of 28.7 µM and an MIC [6] of 462 µM (≈ 128 µg/mL). It also gave a log k [7] of 0.8294, an MIC ([2]; clinical isolate MRSA SA 3202) of 923 µM (≈ 256 µg/mL) and an MIC [3, 10] of 923 µM (≈ 256 µg/mL). It also gave an MIC [8, 11] of 57.7 µM (≈ 16 µg/mL) and an MIC [4] of 923 µM (≈ 256 µg/mL).

In the case of `Cc1cccc(C)c1NC(=O)c1ccc2ccccc2c1O` [Compound 12], the MIC ([1]; clinical isolate MRSA SA 630) is reported as 110 µM (≈ 32 µg/mL), the IC50 [5] is reported as 60.3 µM and the MIC [6] is reported as 110 µM (≈ 32 µg/mL). For the same compound, the log k [7] was 0.5990, the MIC ([2]; clinical isolate MRSA SA 3202) was 110 µM (≈ 32 µg/mL) and the MIC [3, 10] was 110 µM (≈ 32 µg/mL). It also gave an MIC [8, 11] of 220 µM (≈ 64.1 µg/mL) and an MIC [4] of 55.0 µM (≈ 16 µg/mL).

With `Cc1cc(C)c(NC(=O)c2ccc3ccccc3c2O)c(C)c1` [Compound 14] the MIC ([1]; clinical isolate MRSA SA 630) was over 838 µM, the IC50 [5] was 295 µM and the MIC [6] was 13.1 µM (≈ 4 µg/mL). The log k [7] was 0.7477, the MIC ([2]; clinical isolate MRSA SA 3202) was over 838 µM and the MIC [3, 10] was over 838 µM. The MIC [8, 11] was 104 µM (≈ 31.8 µg/mL) and the MIC [4] was over 838 µM.
